A short description of one series: in vivo. More on the design: species or system DD strain male mice. The settings on record: mouse, ip. The protocol:
LD50 values of the compounds of this invention were determined by the use of DD strain male mice having body weight of 18 to 20 g, 5 heads per one group. Each test compound was dissolved into physiological solution of sodium chloride containing 1% dimethyl sulfoxide and administered intraperitoneally to the animals. The dose levels were 20 mg/kg, 16.7 mg/kg, 13.9 mg/kg, 11.6 mg/kg and 9.6 mg/kg. One week after the administration, LD50 was determined.
(§1) The compounds used in the antitumor activity test and the acute toxicity test were the aforementioned novel compounds. The results of tests concerning the compounds of general formula (I) are listed in Table 1, while those concerning the compounds of general formula (II) are listed in Table 2.

The next series has as its system Leukaemia P388. In kind it is in vivo, CDF1 male mice. The settings on record: ip.
Description: CDF1 male mice having body weight of 18 to 20 g, 10 heads per one group, were inoculated with 2×10^5 cells/mouse Leukaemia P388. Twenty four hours after the inoculation, an appointed dose of test compound was intraperitoneally administered to the animals of administration group, after which the administration was repeated for successive 6 days. The survival day numbers of the animals were counted.
Survival time of the animals was expressed by average survival day number.
as §1

For series [1] the following is noted: U.S. Pat. No. 3,361,742 and J. Am. Chem. Soc., 87, 5791-5793 (1965); cited from earlier work.
For series [2] the following is noted: U.S. Pat. No. 3,361,742 and J. Am. Chem. Soc., 87, 5791-5793 (1965); cited from earlier work. This is another data set of the same source.
The mark [3] stands for this setting: intraperitoneal, one week after administration, read-out: Acute toxicity LD50.

Read-outs that look alike come from different tables or passages of the source.

For orientation: LD50 means the dose expected to kill half of the subjects tested.

Take `CC(=O)Oc1c(C)ccc2c1NC(O)C1CCCN1C2=O` (centres unmarked) [Example 22, 2,3,5,10,11,11a-hexahydro-9-acetoxy-11-hydroxy-8-methyl-1H-pyrrolo[2,1-C][1,4]benzodiazepin-5-one]: the LD50 at 168 h in the series “in vivo” (setting [3]) amounted to 13.5 mg/kg. As to `CCOC1Nc2c(ccc(OC)c2OC(C)=O)C(=O)N2CCCC12` (centres unmarked) [Example 30, 2,3,5,10,11,11a-hexahydro-9-acetoxy-11-ethoxy-8-methoxy-1H-pyrrolo[2,1-C][1,4]benzodiazepin-5-one], the LD50 at 168 h in the series “in vivo” (setting [3]) is 12.7 mg/kg. On the same count and under the same terms, the value for `CCOC1Nc2c(ccc(C)c2OC(C)=O)C(=O)N2CCCC12` (centres unmarked) [Example 18, 2,3,5,10,11,11a-hexahydro-9-acetoxy-11-ethoxy-8-methyl-1H-pyrrolo[2,1-C][1,4]benzodiazepin-5-one] was 12.8 mg/kg. The same measure, in the same setting: under `CC(=O)Oc1cccc2c1NC(O)C1CCCN1C2=O` (centres unmarked) [Example 23, 2,3,5,10,11,11a-hexahydro-9-acetoxy-11-hydroxy-1H-pyrrolo[2,1-C][1,4]-benzodiazepin-5-one] stands 12.7 mg/kg. With `COC1Nc2c(ccc(C)c2O)C(=O)N2CCCC12` (centres unmarked) [4, 11], the LD50 at 168 h in the series “in vivo” is 13.8 mg/kg. Take `COc1ccc2c(c1OC(C)=O)NC(OC)C1CCCN1C2=O` (centres unmarked) [Example 28, 2,3,5,10,11,11a-hexahydro-9-acetoxy-8,11-dimethoxy-1H-pyrrolo[2,1-C][1,4]benzodiazepin-5-one]: in the series “in vivo” (setting [3]), the LD50 at 168 h stood at 12.3 mg/kg. The same measure, in the same setting: the value for `Cc1ccc2c(c1O)NC(O)C1CCCN1C2=O` (centres unmarked) [Example 12, 2,3,5,10,11,11a-hexahydro-9,11-dihydroxy-8-methyl-1H-pyrrolo[2,1-C][1,4]benzodiazepin-5-one] was 12.9 mg/kg.

Take `CCOC1Nc2c(ccc(OC)c2O)C(=O)N2CCCC12` (centres unmarked) [Example 29, 2,3,5,10,11,11a-hexahydro-11-ethoxy-9-hydroxy-8-methoxy-1H-pyrrolo[2,1-C][1,4]benzodiazepin-5-one]: the figures for the “Antitumor activity, Life-prolongation rate” value in the series on Leukaemia P388 (2.5 mg/kg) and in the series with Leukaemia P388 (5 mg/kg) were 123.3% and 141.4%, respectively. The LD50 at 168 h in the series “in vivo” (setting [3]) amounted to 12.2 mg/kg. In the case of `O=C1c2cccc(O)c2NC(O)C2CCCN12` (centres unmarked) [Example 14, 2,3,5,10,11,11a-hexahydro-9,11-dihydroxy-1H-pyrrolo[2,1-C][1,4]benzodiazepin-5-one], the LD50 at 168 h in the series “in vivo” (setting [3]) was 12.5 mg/kg. In the case of `Cc1ccc2c(c1O)N=CC1CCCN1C2=O` (centres unmarked) [Example 8, 2,3,5,11a-tetrahydro-9-hydroxy-8-methyl-1H-pyrrolo[2,1-C][1,4]benzodiazepin-5-one], the “Antitumor activity, Life-prolongation rate” value in the series on Leukaemia P388 (2.5 mg/kg) was 126.7%; in the series with Leukaemia P388 (5 mg/kg), 148.7%. For the same molecule, in “in vivo” (setting [3]), the 50% lethal dose (LD50) at 168 h is 13.6 mg/kg. As to `COc1ccc2c(c1OC(C)=O)NC(O)C1CCCN1C2=O` (centres unmarked) [Example 27, 2,3,5,10,11,11a-hexahydro-9-acetoxy-11-hydroxy-8-methoxy-1H-pyrrolo[2,1-C][1,4]benzodiazepin-5-one], in the series “in vivo” (setting [3]), the LD50 at 168 h is 12.4 mg/kg.

For the molecule `COc1ccc2c(c1O)NC(O)C1CCCN1C2=O` (centres unmarked) [Example 16, 2,3,5,10,11,11a-hexahydro-9,11-dihydroxy-8-methoxy-1H-pyrrolo[2,1-C][1,4]benzodiazepin-5-one], the LD50 at 168 h in “in vivo” (setting [3]) was 12.6 mg/kg. `CCOC1Nc2c(O)cccc2C(=O)N2CCCC12` (centres unmarked) [Example 25, 2,3,5,10,11,11a-hexahydro-11-ethoxy-9-hydroxy-1H-pyrrolo[2,1-C][1,4]benzodiazepin-5-one]: the LD50 at 168 h in the series “in vivo” (setting [3]) is 13 mg/kg. The same measure, in the same setting: under `COc1ccc2c(c1OC(C)=O)N=CC1CCCN1C2=O` (centres unmarked) [Example 32, 2,3,5,11a-tetrahydro-9-acetoxy-8-methoxy-1H-pyrrolo[2,1-C][1,4]benzodiazepin-5-one] stands 13.7 mg/kg. For the molecule `CCOC1Nc2c(OC(C)=O)cccc2C(=O)N2CCCC12` (centres unmarked) [Example 26, 2,3,5,10,11,11a-hexahydro-9-acetoxy-11-ethoxy-1H-pyrrolo[2,1-C][1,4]benzodiazepin-5-one], the LD50 at 168 h in “in vivo” (setting [3]) worked out at 13.2 mg/kg. Still for that read-out and setting: the value for `O=C1c2cccc(O)c2N=CC2CCCN12` (centres unmarked) [Example 9, 2,3,5,11a-tetrahydro-9-hydroxy-1H-pyrrolo[2,1-C][1,4]benzodiazepin-5-one] was 13.1 mg/kg; that for `CC(=O)Oc1cccc2c1N=CC1CCCN1C2=O` (centres unmarked) [Example 31, 2,3,5,11a-tetrahydro-9-acetoxy-1H-pyrrolo[2,1-C][1,4]benzodiazepin-5-one] was 13.4 mg/kg. Regarding `COC1Nc2c(ccc(C)c2OC(C)=O)C(=O)N2CCCC12` (centres unmarked) [17, 21], the entries for the “Antitumor activity, Life-prolongation rate” value with Leukaemia P388 (2.5 mg/kg) and in the series with Leukaemia P388 (5 mg/kg) were 125.0% and 149.0%, respectively. Besides, the LD50 at 168 h in the series “in vivo” (setting [3]) worked out at 13.9 mg/kg. As to `CC(=O)Oc1c(C)ccc2c1N=CC1CCCN1C2=O` (centres unmarked) [20, 19], in “in vivo” (setting [3]), the LD50 at 168 h amounted to 12.8 mg/kg. On to `CCOC1Nc2c(ccc(C)c2O)C(=O)N2CCCC12` (centres unmarked) [Example 7, 2,3,5,10,11,11a-hexahydro-11-ethoxy-9-hydroxy-8-methyl-1H-pyrrolo[2,1-C][1,4]benzodiazepin-5-one], for which the LD50 at 168 h in the series “in vivo” (setting [3]) worked out at 13.3 mg/kg. `COc1ccc2c(c1O)N=CC1CCCN1C2=O` (centres unmarked) [Example 10, 2,3,5,11a-tetrahydro-9-hydroxy-8-methoxy-1H-pyrrolo[2,1-C][1,4]benzodiazepin-5-one]: the “Antitumor activity, Life-prolongation rate” value was found to be 126.7% in the series on Leukaemia P388 (2.5 mg/kg) and 145.6% in the series on Leukaemia P388 (5 mg/kg). In addition, the LD50 at 168 h in the series “in vivo” (setting [3]) was 13.3 mg/kg. For `COC1Nc2c(OC(C)=O)cccc2C(=O)N2CCCC12` (centres unmarked) [24, 33], in that order: 121.6%, 143.8% and 12.4 mg/kg. Turning to `COC1Nc2c(O)cccc2C(=O)N2CCCC12` (centres unmarked) [5, 13], the entries for the “Antitumor activity, Life-prolongation rate” value in the series with Leukaemia P388 (2.5 mg/kg) and in the series with Leukaemia P388 (5 mg/kg) were 127.0% and 148.0%, respectively. For the same molecule, in the series “in vivo” (setting [3]), the LD50 at 168 h worked out at 12.8 mg/kg. Consider `COc1ccc2c(c1O)NC(OC)C1CCCN1C2=O` (centres unmarked) [15, 6], for which the LD50 at 168 h in the series “in vivo” (setting [3]) stood at 12.7 mg/kg. Consider `Cc1ccc2c(c1O)NC(O)C1CC(/C=C/C(N)=O)=CN1C2=O` (centres unmarked) [5,10,11,11a-tetrahydro-9,11-dihydroxy-8-methyl-5-oxo-1H-pyrrolo[2,1-C][1,4]-benzodiazepin-2-acrylamide], for which, in series [1], the antitumor activity result is “antitumor”. The antibacterial activity entry in series [2] is “antibacterial”.

(Values after US4185016A, “Pyrrolo benzodiazepine compounds” (priority 1977, dated 1980).)
